Laboratory results from patent US4160829A, “Antibacterial 1,2,4-oxadiazolylacetamido cephalosporins” (Gist-Brocades N.V., priority 1972, dated 1979).

What was measured:
Bac.Subt.ATCC 6633 = assay: agar serial dilution test; assay type: cell-based, Bacillus subtilis; settings: Bacillus subtilis, ATCC6633, 24 h, agar serial dilution, 24 hours, 37° C.; read-out: minimal inhibitory concentration (MIC)
Staph.aureus A 321 = assay: agar serial dilution test; assay type: cell-based, Staphylococcus aureus; settings: Staphylococcus aureus, A321, 24 h, agar serial dilution, 24 hours, 37° C.; read-out: minimal inhibitory concentration (MIC)
Staph.aureus A 2000 [1] = assay: agar serial dilution test; assay type: cell-based, Staphylococcus aureus; settings: Staphylococcus aureus, A2000, 24 h, agar serial dilution, 24 hours, 37° C.; read-out: minimal inhibitory concentration (MIC)
Staph.aureus A 2001 [2] = assay: agar serial dilution test; assay type: cell-based, Staphylococcus aureus; settings: Staphylococcus aureus, A2001, 24 h, agar serial dilution, 24 hours, 37° C.; read-out: minimal inhibitory concentration (MIC)
Strep. faec. L 80 = assay: agar serial dilution test; assay type: cell-based, Streptococcus faecalis; settings: Enterococcus faecalis; agar serial dilution, 24 hours, 37° C.; read-out: minimal inhibitory concentration (MIC)
Past.multo. A 723 = assay: agar serial dilution test; assay type: cell-based, Pasteurella multocida; settings: Pasteurella multocida; agar serial dilution, 24 hours, 37° C.; read-out: minimal inhibitory concentration (MIC)
Kleb.pneum. A 809 = assay: agar serial dilution test; assay type: cell-based, Klebsiella pneumoniae; settings: Klebsiella pneumoniae; agar serial dilution, 24 hours, 37° C.; read-out: minimal inhibitory concentration (MIC)
Esch.coli U 20 = assay: agar serial dilution test; assay type: cell-based, Escherichia coli; settings: Escherichia coli, U20; agar serial dilution, 24 hours, 37° C.; read-out: minimal inhibitory concentration (MIC)
Pseud.aerug. H 10 = assay: agar serial dilution test; assay type: cell-based; settings: agar serial dilution, 24 hours, 37° C.; read-out: minimal inhibitory concentration (MIC)
Pseud.aerug. 2396 = assay: agar serial dilution test; assay type: cell-based; settings: agar serial dilution, 24 hours, 37° C.; read-out: minimal inhibitory concentration (MIC)
[3] = system: Pseud.aerug. Wyeth A 1058; assay: agar serial dilution test; assay type: cell-based; settings: agar serial dilution, 24 hours, 37° C.; read-out: minimal inhibitory concentration (MIC)
Prot.rettg. A 821 = assay: agar serial dilution test; assay type: cell-based, Proteus rettgeri; settings: Providencia rettgeri, 24 h, agar serial dilution, 24 hours, 37° C.; read-out: minimal inhibitory concentration (MIC)
Prot.mirab. H 3 = assay: agar serial dilution test; assay type: cell-based, Proteus mirabilis; settings: Proteus mirabilis; agar serial dilution, 24 hours, 37° C.; read-out: minimal inhibitory concentration (MIC)
Prot.mirab. L 93 = assay: agar serial dilution test; assay type: cell-based, Proteus mirabilis; settings: Proteus mirabilis; agar serial dilution, 24 hours, 37° C.; read-out: minimal inhibitory concentration (MIC)
Strep.haem A 1088 = assay: agar serial dilution test; assay type: cell-based, Streptococcus haemolyticus; settings: Streptococcus, A1088, 24 hours, 37° C., read-out: minimal inhibitory concentration (MIC)
Bruc. Suis A 2126 = assay: agar serial dilution test; assay type: cell-based; settings: Brucella suis, 24 h, read-out: minimal inhibitory concentration (MIC)
Salm.typh. R 172 = assay: agar serial dilution test; assay type: cell-based; settings: 24 h, read-out: minimal inhibitory concentration (MIC)
Staph.aureus A 355 [4] = assay: micro serial dilution test; assay type: cell-based, Staphylococcus aureus; settings: Staphylococcus aureus, A355; micro serial dilution (in brackets), about 18 hours, 30° C. or 37° C.; penicillinase-producing strain; read-out: minimal inhibitory concentration (MIC)
Staph.aureus A 2000 [5] = assay: micro serial dilution test; assay type: cell-based, Staphylococcus aureus; settings: Staphylococcus aureus, A2000, 18 h, micro serial dilution (in brackets), about 18 hours, 30° C. or 37° C.; read-out: minimal inhibitory concentration (MIC)
Staph.aureus A 2001 [6] = assay: micro serial dilution test; assay type: cell-based, Staphylococcus aureus; settings: Staphylococcus aureus, A2001, 18 h, micro serial dilution (in brackets), about 18 hours, 30° C. or 37° C.; read-out: minimal inhibitory concentration (MIC)
[7] = blood and urine contents after intramuscular administration in rabbits; assay type: in vivo, rabbits "Nieuw Zeelander"; settings: rabbit, im, intramuscular 50 mg/kg
Method: (d) the blood and urine contents of the above-indicated compound G and of monosodium 7-[(3-carboxymethyl-1,2,4-oxadiazol-5-yl)acetamido]-3-acetoxymethyl-3-cephem-4-carboxylate (as prepared in example 35) were determined after intramuscular administration of these compounds in an aqueous solution in rabbits, as listed below:
test animals: rabbits "Nieuw Zeelander"
Each testgroup consisted of 3 rabbits.
Vehiculum: Physiol. saline solution
Bloodsamples were taken after 1/4--1/2--1--2--4 hours Urinesamples were taken after 1--3--6--24--27 hours (in practice only the secreted amounts after 6 and 24 hours were used).
Testorganisms: Bacillus subtilis ATCC 6633 and Bacillus callidolactis E 16.
The contents of the compounds in the samples were determined microbiologically.
(Only microbiologically detected concentrations, i.e. anti-bacterially active concentrations only have been indicated and determined in relation to the original administered compound).

Staph.aureus A 355 [8] = assay: agar serial dilution test; settings: Staphylococcus aureus, A355, 24 h, read-out: minimal inhibitory concentration (MIC), agar serial dilution, 24 hours, 37° C.; penicillinase-producing strain

SMILES: Cc1noc(CC(=O)N[C@@H]2C(=O)N3C(C(=O)O)=C(CSc4nnnn4C)CS[C@H]23)n1 [Compound G, sodium-7[(3-methyl-1,2,4-oxadiazol-5-yl)-acetamido] 3 [1-methyl-tetrazol-5-yl-mercaptomethyl] 3-cephem-4-carboxylate]
- MIC (Bac.Subt.ATCC 6633): 0.25 mg/L
- MIC (Staph.aureus A 321): 0.25 mg/L
- MIC (Staph.aureus A 2000 [1]): 0.75 mg/L
- MIC (Staph.aureus A 2001 [2]): 0.5 mg/L
- MIC (Strep. faec. L 80): 50 mg/L
- MIC (Past.multo. A 723): 1 mg/L
- MIC (Kleb.pneum. A 809): 0.5 mg/L
- MIC (Esch.coli U 20): 0.75 mg/L
- MIC (Pseud.aerug. H 10): 100 mg/L
- MIC (Pseud.aerug. 2396): 100 mg/L
- MIC [3]: 100 mg/L
- MIC (Prot.rettg. A 821): 0.25 mg/L
- MIC (Prot.mirab. H 3): 25 mg/L
- MIC (Prot.mirab. L 93): 3 mg/L
- MIC (Strep.haem A 1088): 0.25 mg/L
- MIC (Bruc. Suis A 2126): 1 mg/L
- MIC (Salm.typh. R 172): 1.5 mg/L
- MIC (Staph.aureus A 355 [4]): 0.9 mg/L
- MIC (Staph.aureus A 2000 [5]): 0.6 mg/L
- MIC (Staph.aureus A 2001 [6]): 0.6 mg/L
- concentration at 0.5 h ([7]; serum, after 1/2 hr, read-out: Serumlevel): 137 µg/mL
- concentration at 0.25 h ([7]; serum, after 1/4 hr, read-out: Serumlevel): 157 µg/mL
- concentration at 1 h ([7]; serum, after 1 hr, read-out: Serumlevel): 49 µg/mL
- concentration at 2 h ([7]; serum, after 2 hr, read-out: Serumlevel): 25 µg/mL
- concentration at 4 h ([7]; serum, after 4 hr, read-out: Serumlevel): 6.7 µg/mL
- dose excreted at 6 h ([7]; urine, after 6 hr, read-out: Secretion of compound in urine in % of the administered dose): 51.3%
- dose excreted at 24 h ([7]; urine, after 24 hr, read-out: Secretion of compound in urine in % of the administered dose): 55.5%
- MIC (Staph.aureus A 355 [8]): 1 mg/L
